Data on one compound can be found in patent US20180043011A1, “PI3-Kinase Inhibition and LAG-3 Checkpoint blockade as a Combination Therapy for Cancer” (Wisconsin Alumni Research Foundation, priority 2016, published 2018).

Assay [1] has as its system activated (CD137+) CD8+ T cells. Description: In vitro stimulation of splenocytes, surface expression of LAG-3 and PD1 by flow cytometry. In kind it is cell-based, mouse. To be noted: 200nM BEZ235; WT (CD3/28 beads) or OT1 (SIINFEKL peptide) splenocytes; 24 h. Here is the method:
FIG. 1A depicts WT (top) and OT1 (bottom) splenocytes stimulated with either CD3/28 beads or SIINFEKL peptide respectively, with/without PI3K inhibition and assayed for surface expression of LAG-3 (left graphs) or PD1 (right graphs) on activated (CD137+) CD8+ T cells at 24 h. FIG. 1B depicts a representative OT1 sample showing levels of LAG-3 and PD1 on CD8+ T cells upon in vitro SIINFEKL stimulation in the presence of a PI3K inhibitor. (* denotes a p-value <0.05, two way Mann-Whitney test) FIG. 1C depicts WT splenocytes stimulated with CD3/28 beads with/without PI3K inhibition and assayed for intracellular expression of cytokines in CD8+ T cells.
Splenocytes from either OT-1 or wild type (WT) C57BL/6J mice were cultured in RPMI-1640, 10% FCS, 200U/mL Pen/Strep, 1% NaPyr, 1% HEPES, 50 μM β-MeOH and 2 μg/mL SIINFEKL peptide (OT1 cells) or CD3 and CD28 antibody coated latex beads (WT cells) with or without 200nM BEZ235 PI3-Kinase inhibitor (Selleckchem, Catalog No. S1009).
(* denotes a p-value <0.05, two way Mann-Whitney test).

The test system of assay [2] is SSX2 mouse sarcoma cell line. Kind of assay: Cancer cell growth in vitro (images after three days). In kind it is cell-based. As to conditions: 200 nM BEZ235; three days after plating; 100,000 cells per flask. As for the experimental part: An SSX2 mouse sarcoma cell line (described in Rekoske et al., Cancer Immunol Res August 2015 3; 946) was split and 100,000 cells plated into each of two […] flasks. Cells were grown in RPMI-1640, 5% FCS, 200 U/mL Pen/Strep, 50 μM β-MeOH with or without 200 nM BEZ235 PI3-Kinase inhibitor. FIG. 2 left, mouse sarcoma cell line grown in normal media three days after plating; shown at […] and 10× and right, sarcoma cells from the same split plated with the same number of cells/cm^2 and grown in media containing the pan-PI3K inhibitor BEZ235.

Regarding `Cn1c(=O)n(-c2ccc(C(C)(C)C#N)cc2)c2c3cc(-c4cnc5ccccc5c4)ccc3ncc21` [BEZ235], in assay [1], the “surface expression of LAG-3 on CD8+ T cells” value is “increased expression of LAG-3” and the “surface expression of PD-1 on CD8+ T cells” value is given as “reduced expression of PD-1”. In assay [2], the cell growth entry is reported as “inhibited cell growth”.
